Laboratory results: PMC9570109, “Improved Trimethylangelicin Analogs for Cystic Fibrosis: Design, Synthesis and Preliminary Screening” (International Journal of Molecular Sciences, 2022)

Assays:
[1] = system: Salmonella typhimurium TA100; assay: Ames mutagenicity assay, plate incorporation, TA100; format: cell-based
Method: The mutagenicity assay was performed for the test compounds following the plate incorporation method with the histidine-requiring Salmonella typhimurium mutant TA97A, TA98, TA100, and TA1535 strains purchased by Molecular Toxicology Inc. (Boone, NC, USA; moltox.com). All strains (100 µL per plate of fresh overnight cultures) were checked with and without the addition of 0.5 mL of a 5% S9 exogenous metabolic activator (S9 mix). The lyophilized post-mitochondrial supernatant S9 mix (Aroclor 1254-induced, Sprague–Dawley male rat liver in 0.154 M KCl solution), commonly used for the activation of pro-mutagens in mutagenic metabolites (Molecular Toxicology, Inc., Boone, NC, USA), was stored at −80 °C before use. The concentration tested for all the samples were 5, 10, 20, 50, and 100 µL/plate from a stock solution of 500 nM. A fully grown culture of the appropriate tester strain (0.1 mL) was added to 2 mL molten top agar (0.6% agar, 0.6% NaCl, 0.5 mM L-histidine/biotin solution) at 46 °C, together with 0.1 mL of each sample solution at different concentrations, and 0.5 mL S9 mix for assays with metabolic activation. The ingredients were thoroughly mixed and poured onto minimal glucose agar plates (1.5% agar in 2% Vogel–Bonner medium E with 5% glucose solution). DMSO was used as negative a control (100 µL/plate). Positive controls were prepared as follows: 2-aminoanthracene (2 µg/plate) and 2-nitrofluorene (2 µg/plate) for TA 97A, TA98 and TA1535 with and without metabolic activator (S9 mix), respectively; 2-aminoanthracene (2 µg/plate) and sodium azide (2 µg/plate) for TA100, with and without metabolic activator (S9 mix), respectively. The plates were incubated at 37 °C for 72 h and then his+ revertants were checked and counted using a Colony Counter 560 Suntex (Antibioticos, Italy). A sample was considered mutagenic when the observed number of colonies was at least twofold over the spontaneous level of revertants. All determinations were made in triplicate. Statistical analysis: relative standard deviations were calculated using the statistical software STATISTICA 6.0 (StatSoft, Italia srl, Vigonza, Italy). […]
Salmonella typhimurium TA97A Salmonella typhimurium TA98 Salmonella typhimurium TA100 Salmonella typhimurium 1535 […]
average SD t/c average SD t/c average SD t/c average SD t/c average SD t/c average SD t/c average SD t/c average SD t/c […]
*Significant values according to Ames computation (Maron & Ames, 1983); DMSO, C+: negative and positive controls respectively; SD: Standard Deviation; t/c: number of revertant colonies in treated plates/number of revertant colonies in […]

[2] = system: Salmonella typhimurium mutant TA97A, TA98, TA100, and TA1535 strains; assay: Ames test, overall result on all strains; format: cell-based; settings: all concentrations, with and without S9 mix
Method: To investigate whether changes in the structure of TMA abolish the mutagenic effect observed with this class of compounds, the most promising TMA analogs were evaluated by the Ames test. Compounds 4-PhDMA and pANDMA were tested for genotoxicity evaluation using the histidine-requiring Salmonella typhimurium mutant TA97A, TA98, TA100, and TA1535 strains that allow checking frameshift mutation and base pair substitution, with and without metabolic activation induced by S9 Mix.
The number of spontaneous revertants is relatively constant, but it dramatically increases—generally in a dose-dependent way—when a mutagen is added to the plate. […]
The mutagenicity assay was performed for the test compounds following the plate incorporation method with the histidine-requiring Salmonella typhimurium mutant TA97A, TA98, TA100, and TA1535 strains purchased by Molecular Toxicology Inc. (Boone, NC, USA; moltox.com). […] The plates were incubated at 37 °C for 72 h and then his+ revertants were checked and counted using a Colony Counter 560 Suntex (Antibioticos, Italy). […] Statistical analysis: relative standard deviations were calculated using the statistical software STATISTICA 6.0 (StatSoft, Italia srl, Vigonza, Italy).

[3] = TA100, +S9, 5 µL/plate of 500 nM stock
[4] = TA100, +S9, 10 µL/plate of 500 nM stock
[5] = TA100, +S9, 20 µL/plate of 500 nM stock
[6] = TA100, +S9, 50 µL/plate of 500 nM stock
[7] = TA100, +S9, 100 µL/plate of 500 nM stock
[8] = TA100, -S9, 5 µL/plate of 500 nM stock
[9] = TA100, -S9, 10 µL/plate of 500 nM stock
[10] = TA100, -S9, 20 µL/plate of 500 nM stock
[11] = TA100, -S9, 50 µL/plate of 500 nM stock
[12] = TA100, -S9, 100 µL/plate of 500 nM stock

SMILES	revertant colonies, average [1, 3]	t/c (revertant colonies treated/untreated plates) [1, 3]	revertant colonies, average [1, 4]	t/c (revertant colonies treated/untreated plates) [1, 4]	revertant colonies, average [1, 5]	t/c (revertant colonies treated/untreated plates) [1, 5]	revertant colonies, average [1, 6]	t/c (revertant colonies treated/untreated plates) [1, 6]	revertant colonies, average [1, 7]	t/c (revertant colonies treated/untreated plates) [1, 7]	revertant colonies, average [1, 8]	t/c (revertant colonies treated/untreated plates) [1, 8]	revertant colonies, average [1, 9]	t/c (revertant colonies treated/untreated plates) [1, 9]	revertant colonies, average [1, 10]	t/c (revertant colonies treated/untreated plates) [1, 10]	revertant colonies, average [1, 11]	t/c (revertant colonies treated/untreated plates) [1, 11]	revertant colonies, average [1, 12]	t/c (revertant colonies treated/untreated plates) [1, 12]	other results
Cc1cc2c(-c3ccccc3)cc(=O)oc2c2c(C)coc12 [4-PhDMA]	159.5	0.9	193.0	1.1	193.5	1.1	187.5	1.1	197.0	1.2	208.5	1.1	198.5	1.0	207.0	1.1	184.5	0.9	179.0	0.9	genotoxic activity (Ames test) [2]: non-genotoxic
Cc1cc(=O)oc2c1cc(-c1ccccc1)c1occ(C)c12 [6-PhDMA]	182.0	1.1	178.5	1.0	184.5	1.1	178.0	1.0	203.0	1.2	186.5	1.0	220.0	1.1	172.0	0.9	202.5	1.0	185.5	0.9	–
Cc1cc(=O)oc2c1cc(-c1ccc(N)cc1)c1occ(C)c12 [pANDMA]	175.0	1.0	181.5	1.1	224.0	1.3	232.0	1.4	235.5	1.4	192.0	1.0	189.0	1.0	204.5	1.0	189.0	1.0	165.5	0.8	genotoxic activity (Ames test) [2]: non-genotoxic
